“Also recorded” adds a separate entry of the source.
Tests used:
[1] = system: Aspergillus fumigatus (akuBKu80 hFKBP12); details: previously shown; cited from earlier work
[2] = In vivo tolerability of JH-FK-05; set-up: species or system mouse; details: daily i.p., up to 60 mg/kg
Description: Based on the in vitro evidence of reduced immunosuppressive activity of JH-FK-05, it was hypothesized that this reduction would translate into reduced immunosuppression in an in vivo model. The murine model for immunosuppression measures the T cell-dependent proliferation of two immune cell subtypes in response to immunization with an antigen. Animals were treated daily via intraperitoneal (i.p.) injection with vehicle, 5 mg/kg FK506, or 60 mg/kg JH-FK-05, beginning on day −1 and ending on day 7. […] On day 0, animals were immunized with NP-OVA to stimulate T cell-dependent signaling that would result in proliferation of T follicular helper (Tfh) cells and germinal center (GC) B cells. Animals were sacrificed on day 7, and the proportions of Tfh and GC B cells in the lymph nodes were measured. […]
Groups of 6 female C57BL/6 mice (Jackson Laboratory) were treated daily by intraperitoneal (i.p.) injection with about 100 μL vehicle, 5 mg/kg FK506, or 60 mg/kg JH-FK-05 beginning on day −1. […] Mice were treated and monitored daily until they were sacrificed on day 7. Draining lymph nodes were harvested on day 7, and the populations of T follicular helper cells and GC B cells were analyzed by flow cytometry. Tfh and GC B cells were measured from T Cell Receptor β (TCRβ^+) CD4^+CD44^hi cells and TCRβ^−CD19^+ cells, respectively.

[3] = system: C. neoformans H99; assay: Intravenous model of disseminated cryptococcosis, brain fungal burden (Example 1); format: in vivo, Cryptococcus neoformans in mice
Source text: The high in vitro antifungal activity of JH-FK-05 presented promising evidence that it might effectively reduce fungal burden in the context of murine infection. Two models of C. neoformans infection were employed to test this hypothesis (FIG. 7A). First, in the intranasal model, animals were anesthetized and infected with 10^5 cells of wild-type H99 C. neoformans via instillation in the animal's nares. These animals were monitored for 14 days and then sacrificed. This model tests the efficacy of JH-FK-05 to treat a pulmonary infection, which is the most common manifestation of early-stage cryptococcosis in patients. Second, the intravenous (i.v.) model approximates the disseminated stage of disease. […]
Wild-type H99 C. neoformans cells were grown overnight at 30° C. in a roller drum in yeast extract-peptone-dextrose (YPD) medium. […] H99 cells were counted with a hemacytometer and diluted to 2×10^6 cells/mL in PBS for the pulmonary model and 2×10^5 cells/mL in PBS for the disseminated model. […]
Mice were euthanized by CO2 inhalation at the predetermined experimental endpoint. […] A 100-μL aliquot of each dilution was plated on antibiotic plates (YPD, 50 μg/mL ampicillin, and 30 µg/mL chloramphenicol), incubated for 48 to 72 h at 30° C., and assessed for CFU. […] Statistical significance was calculated using an ordinary one-way analysis of variance (ANOVA) with Tukey's multiple-comparison test.

[4] = system: C. neoformans strain H99; assay: Murine cryptococcal infection, lung fungal burden (Example 3); format: in vivo, Cryptococcus neoformans in A/J mice; details: once daily; fluconazole 12 mg/kg, JH-FK-08 40 mg/kg
Description: In vivo antifungal activity and therapeutic benefit were assayed by investigating the impact of the FK520 analog on organ fungal burden during cryptococcosis. Specifically, the in vivo efficacy of JH-FK-08 on fungal burden was assessed using A/J female mice. Immunodeficient A/J mice were selected in part due to their defect in complement component five and their susceptibility to cryptococcal infection. Treatment groups included vehicle of 10% Kolliphor: ethanol (1:1) in phosphate-buffered saline (PBS), […], or the fluconazole and JH-FK-08 combination, […] infection. […] Mice were intranasally infected with C. neoformans strain H99, and fungal burden in the lung, spleen, and brain was assessed after 14 days of treatment.
C. neoformans inoculum was prepared by growing a 5-mL overnight YPD culture spinning in a tissue culture roller drum at 30° C. Cells were pelleted by centrifugation and washed in sterile PBS three times. Cell density was determined by hemocytometer, and cells were diluted to 2×10^6 cells/mL. Mice (10 to 20 g) were infected with 10^5 cells of C. neoformans H99. For inhalation infection, animals were anesthetized with isoflurane before 50 μL of inoculum was pipetted onto the upright nasal passages of each animal. Following inhalation of the inoculum, animals were monitored for post anesthesia recovery. Treatment of animals began 4 hours post infection and was continued for 14 days. Fungal burden was assessed 24 h after the final dose.
For survival curve analysis, animals were monitored until reaching defined humane end points, including social isolation, hunched posture, weight loss, lack of grooming, and labored breathing, and were then euthanized via CO2 inhalation. […] One hundred microliters of each dilution was plated on YPD plates supplemented with YPD 50 μg/mL ampicillin and 30 μg/mL chloramphenicol, incubated at 30° C. for 2 days, and assessed for colony-forming units. CFU per organ weight was calculated and plotted using GraphPad Prism 9.

Structure (SMILES): C=CCC1C=C(C)CC(C)CC(OC)C2OC(O)(C(=O)C(=O)N3CCCCC3C(=O)OC(C(C)=CC3CCC(O)C(OC)C3)C(C)C(O)CC1=O)C(C)CC2OC (centres unmarked) [FK506, reference compound]
- resistance of hFKBP12-expressing strain [1]: completely resistant

Structure (SMILES): CC[C@@H]1/C=C(\C)C[C@H](C)C[C@H](OC)[C@H]2O[C@@](O)(C(=O)C(=O)N3CCCC[C@H]3C(=O)O[C@H](/C(C)=C/[C@@H]3CC[C@@H](O)[C@H](OC)C3)[C@H](C)[C@@H](O)C/C1=N/NC(C)=O)[C@H](C)C[C@@H]2OC [JH-FK-05]
- tolerability [2]: tolerated at a dose as high as 60 mg/kg; also recorded: well tolerated by animals throughout the course of treatment; also recorded: animals tolerated JH-FK-05 treatment for the full treatment period
- reduction of brain fungal burden ([3]; day 7, JH-FK-05 60 mg/kg, fluconazole 12 mg/kg, i.p. daily): 2 fold
- blood-brain barrier crossing ([3]; inferred from brain fungal burden): can cross the blood-brain barrier

Structure (SMILES): CC[C@@H]1/C=C(\C)C[C@H](C)C[C@H](OC)[C@H]2O[C@@](O)(C(=O)C(=O)N3CCCC[C@H]3C(=O)O[C@H](/C(C)=C/C3CC[C@@H](O)[C@H](OC)C3)[C@H](C)[C@@H](O)C/C1=N/NC(=O)OC)[C@H](C)C[C@@H]2OC (some centres unmarked) [JH-FK-08]
- lung fungal burden reduction [4]: limited efficacy in reducing lung fungal burden
